Test results: patent US20260364175A1, “COMPOSITIONS FOR DRUG ADMINISTRATION” (Aegis Therapeutics, LLC, priority 2018, published 2026)
Entries after “also recorded” stand apart in the source; their conditions may differ.

Legend:
[1] = clinical; conditions: human, in vivo
[2] = 10 mg fast-dispersing tablet with alkylsaccharide, buccal
[3] = whole-swallowed tablet, oral; cited from earlier work
[4] = aqueous liquid with SDS and an organic acid; cited from earlier work
[5] = fast-dispersing tablets 50 mg with 1% to 2% alkylsaccharide
[6] = tested on: blood glucose; conditions: previous studies; cited from earlier work
[7] = tested on: blood glucose; assay: Ocular administration of glucagon plus surfactant, blood glucose in rats; format: in vivo, rat; conditions: eye drops, 0.5% surfactant plus glucagon (30 μg)
[8] = tested on: human nasal epithelium; assay: Nasal mucosa irritation
[9] = cited from earlier work
[10] = Oral phenylephrine tablet bioavailability in a canine model; format: in vivo, dog; conditions: compressed tablets
Procedure: In a canine model, subjects were dosed orally with various phenylephrine (PE) tablet formulations, and blood samples were taken to determine the rate of parent phenyl ethyl phenylephrine absorption. Blood levels of parent phenylephrine were measured. Three subject groups were created with each alkylsaccharide test group containing five subjects in each test group. All subject groups received 10 mg of phenylephrine as a single tablet. Each subject was in the fasting state for overnight and two hours post dose. Blood samples were taken at pre-dose, 5, 10, 15, 30, 45 min., 1, 2, and 3 hours.
Comparator was the standard 30 mg (total weight including excipients) phenylephrine tablet was no absorption enhancer. Group number 2 tablets contain the alkylsaccharide designated A3, which is n-dodecyl-beta-D-maltoside in the amounts of 2.5 mg, 5 mg, and 7.5 mg, respectively. Group number three tablets contain the alkylsaccharide designated B3, which is sucrose monododecanoate, in the amounts of 5 mg, 10 mg, and 20 mg, respectively.

[11] = formulations specifically optimized for oral delivery; cited from earlier work
[12] = tested on: blood glucose; assay: Ocular administration of insulin plus absorption enhancer, blood glucose in anesthetized rats; format: in vivo, rat (male Sprague-Dawley)
[13] = tested on: Escherichia coli (ATCC No. 8739); assay: Antibacterial activity, log reduction of cfu; format: cell-based; conditions: 0.2%; day 28
From the text: (§1) The viable microorganisms used in the invention were not more than five passages removed from the original ATCC culture. As described herein, one passage is defined as the transfer of organisms from an established culture to fresh medium and all transfers are counted.
(§2) Cultures received from the ATCC are resuscitated according to the directions provided by the ATTC. Cells grown in broth were pelleted by centrifugation, resuspended in 1/20th the volume of fresh maintenance broth, and combined with an equal volume of 20% (v/v in water) sterile glycerol. Cells grown on agar were scraped from the surface into the maintenance broth also containing 10% glycerol broth. Small aliquots of the suspension were dispensed into sterile vials and the vials were stored in liquid nitrogen or in a mechanical freezer at a temperature no higher than about −50 °C. When a fresh seed-stock vial was required, it was removed and used to inoculate a series of working stock cultures. These working stock cultures were then used periodically (each day in the case of bacteria and yeast) to start the inoculum culture.
(§3) The culture conditions for the inoculum culture is substantially as described in Table IV. For example, suitable media can include but is not limited to, Soybean-Casein Digest or Sabouraud Dextrose Agar Medium. […]
(§4) The suspension should be refrigerated if it is not used within 2 hours. To confirm the initial cfu per mL estimate, the number of cfu per mL in each suspension was determined using the conditions of media and microbial recovery incubation times listed in Table IV (e.g., from about 3 to about 7 days). This value serves to calibrate the size of inoculum used in the test. The bacterial and yeast suspensions were used within 24 hours of harvest; whereas the fungal preparation can be stored under refrigeration for up to 7 days.
(§5) To determine which alkylglycoside formulations have antibacterial activity, the formulations were prepared in phosphate buffered saline (PBS) at pH 7. As a source of nutrition, either 1.5 mg/mL bovine serum albumin (BSA; see Tables V and VI) or 1 mg/mL of PYY was added (see Table VII) to the medium. BSA (CAS Number: 9048-46-8) was obtained from Sigma-Aldrich, St. Louis, MO, USA, n-dodecyl-4-O-α-D-glucopyranosyl-β-D-glucopyranoside and n-tetradecyl-4-O-α-D-glucopyranosyl-β-D-glucopyranoside were obtained from Anatrace Inc., Maumee, OH, USA, and PYY was obtained from Bachem California Inc., Torrance, CA, USA.
(§6) Antibacterial activity of the alkylglycosides were conducted in four sterile, capped bacteriological containers of suitable size into which a sufficient volume of alkylglycoside solution had been transferred. Each container was inoculated with one of the prepared and standardized inoculums and mixed. The volume of the suspension inoculum was between about 0.5% and about 1.0% of the volume of the alkylglycoside solution. […]. To determine the level of inhibition of growth, or reduction of growth based on a logarithmic scale, the initial concentration of viable microorganisms in each test preparation was estimated based on the concentration of microorganisms in each of the standardized inoculum as determined by the plate-count method. The inoculated containers were then incubated at about 22.5 °C±2.5. The growth or non-growth of the microorganisms in each culture/container were again determined at day 14 and day 28. The number of cfu present in each calculation was determined by the plate-count procedure standard in the art for the applicable intervals. The change in the orders of magnitude of bacterium and/or fungi was then determined by subtracting the first calculated log 10 values of the concentrations of cfu per mL present at the start or beginning (e.g., day 0), from the log 10 values of the concentration of cfu per mL for each microorganism at the applicable test intervals (e.g., day 14 and day 28; see Tables V, VI and VII).

[14] = tested on: Staphylococcus aureus (ATCC No. 6538); assay: Antibacterial activity, log reduction of cfu; format: cell-based
From the text: as §1, §2, §3, §4, §5, §6

[15] = tested on: Candida albicans (ATCC No. 10231); assay: Antimicrobial activity, log reduction of cfu; format: cell-based
From the text: as §1, §2, §3, §4, §5, §6

[16] = tested on: Aspergillus niger (ATCC No. 16404); assay: Antimicrobial activity, log reduction of cfu; format: cell-based
From the text: as §1, §2, §3, §4, §5, §6

[17] = tested on: blood glucose; assay: Insulin plus tetradecylmaltoside as eye drops then nose drops, blood glucose in rats; format: in vivo, rat
From the text: Tetradecylmaltoside (TDM) in combination with insulin also produced a drop in blood D-glucose levels when administered in the form of a drop intranasally as well as via a drop by the ocular route. […] Thus, intranasal delivery and administration of the alkyl saccharide with drug results in lowering of blood glucose levels.

[18] = tested on: food intake; conditions: injection, on average; cited from earlier work
[19] = cited from earlier work; remark: listed apart in the source
[20] = Raloxifene pharmacokinetics; format: in vivo
Procedure: The recommended dosage is one 60 mg tablet daily. […]. […].

[21] = tested on: blood glucose; assay: Oral liraglutide with Intravail A3, blood glucose under dietary sugar challenge; format: in vivo, human; conditions: Intravail A3 (FIG. 11)
Procedure: Procedure was as follows. […] Composition was mixed with disposable plastic dropper. 40 grams of dietary sugar was ingested and 60 minutes allowed to pass. Blood glucose was measured (upper arm just above elbow on left arm) using meter=To. Deposit composition on back of tongue and swallow. Blood glucose level was measured and recorded at T=10, 20, 30, 40, 55, 70, 80 and 90 min.

[22] = tested on: mucociliary surfaces; conditions: far below concentrations used in intranasal formulations; cited from earlier work

Cc1cc2c(s1)Nc1ccccc1N=C2N1CCN(C)CC1 [olanzapine]
Tmax ([1]; 10 mg): 0.25 to 0.75 h | Tmax ([1]; po): ~6 h | hepatic extraction ratio ([1]; po): ~0.4 | first-pass effect metabolism [2]: substantially reduced first-pass effect metabolism | time to peak concentrations [3]: approximately 6 hours

Calcitonin: calcitonin
stability [4]: at least 6 months

CN(C)CCOC(c1ccccc1)c1ccccc1 [Diphenhydramine]
onset of action [5]: more rapid onset of action

CC1(C)[C@@H](O[C@@H]2OC[C@H](O[C@@H]3OC[C@@H](O)[C@H](O)[C@H]3O)[C@H](O[C@H]3O[C@H](CO)[C@@H](O)[C@H](O)[C@H]3O)[C@H]2O[C@@H]2O[C@H](CO)[C@@H](O)[C@H](O)[C@H]2O[C@H]2O[C@H](CO)[C@@H](O)[C@H](O)[C@H]2O)CC[C@]2(C)[C@H]3CCC45OCC6(CC[C@@](C)(C=O)C[C@@H]64)[C@H](O)C[C@@]5(C)[C@]3(C)CC[C@@H]12 (stereo partly shown) [saponin, reference compound]
stimulation of insulin absorption from the eye [6]: stimulated | effect on ocular glucagon absorption / blood D-glucose [7]: effective; also recorded: rises significantly

CCCCCCCCCCCC(=O)OC[C@H]1O[C@H](O[C@]2(CO)O[C@H](CO)[C@@H](O)[C@@H]2O)[C@H](O)[C@@H](O)[C@@H]1O [sucrose dodecanoate, sucrose monododecanoate]
irritation of nasal epithelium ([8]; 47 days): no observable irritation was detected | amount consumable without observable adverse effect ([9]; 70 kilogram person): 1400-2100 grams per day | acceptable daily intake for humans ([9]; about 1% of the NOAEL): 14-21 grams per day | NOAEL ([9]; in vivo): 20-30 grams/kilogram/day | increase of oral bioavailability of phenylephrine [10]: up to 50%

Parathyroid hormone: parathyroid hormone
oral bioavailability [11]: 2.1%

CCCCCCCCCCCCCCO[C@@H]1O[C@H](CO)[C@@H](O[C@H]2O[C@H](CO)[C@@H](O)[C@H](O)[C@H]2O)[C@H](O)[C@H]1O [Tetradecyl Maltoside, n-tetradecyl-4-O-α-D-glucopyranosyl-β-D-glucopyranoside]
irritation of the nasal mucosa ([8]; […] in OTC nasal saline, daily, 33 days): no observable irritation of the nasal mucosa | effect on blood glucose / ocular insulin absorption ([12]; 0.5% enhancer with 0.2% insulin eye drops): effective as absorption enhancers | effect on ocular insulin absorption ([12]; […] enhancer with insulin eye drops): effective as absorption enhancers | effect on ocular insulin absorption (alkyl chain length comparison) ([12]; alkylmaltosides with insulin eye drops): more effective | growth from initial count [13]: No growth | log reduction at 0.2 % ([14]; ATCC6538, 336 h): ≥ 5 | log reduction at 0.2 % ([14]; ATCC6538, 672 h): ≥ 5 | log reduction at 0.2 % ([15]; ATCC10231, 336 h): 3 | log reduction at 0.2 % ([15]; ATCC10231, 672 h): ≥ 5.4 | growth from initial count ([16]; 0.2%, day 28): No growth | log reduction at 0.2 % ([16]; Aspergillus niger, ATCC16404, 336 h): 0.5 | Blood Glucose ([17]; 0 min, insulin eye drops with […]): 322 mg/dL | effect on blood glucose ([17]; 0.2% insulin eye drops with […] TDM): prompt and prominent drop in blood glucose levels | Blood Glucose ([17]; 15 min, insulin eye drops with […]): 335 mg/dL | Blood Glucose ([17]; 30 min, insulin eye drops with […]): 276 mg/dL | Blood Glucose ([17]; 45 min, insulin eye drops with […]): 221 mg/dL | Blood Glucose ([17]; 60 min, insulin eye drops with […]): 212 mg/dL | Blood Glucose ([17]; 75 min, insulin eye drops with […]): 167 mg/dL | Blood Glucose ([17]; 90 min, insulin eye drops with […]): 174 mg/dL | Blood Glucose ([17]; 120 min, insulin eye drops with […]): 208 mg/dL | Blood Glucose ([17]; 135 min, after insulin nose drops with 0.5%): 129 mg/dL | Blood Glucose ([17]; 150 min, after insulin nose drops with 0.5%): 74 mg/dL | Blood Glucose ([17]; 165 min, after insulin nose drops with 0.5%): 76 mg/dL | Blood Glucose ([17]; 180 min, after insulin nose drops with 0.5%): 68 mg/dL | Blood Glucose ([17]; […], insulin eye drops with […]): 167 mg/dL

PYY: gut hormone fragment peptide PYY3-36
reduction of food eaten [18]: 30%

O=C(c1ccc(OCCN2CCCCC2)cc1)c1c(-c2ccc(O)cc2)sc2cc(O)ccc12 [raloxifene]
water solubility [19]: approx. 0.25 mg/L | circulating inactive raloxifene glucuronide ([20]; fast-dispersing tablet 10 mg or less, 0.5% to 5% dodecyl maltoside, buccal): less circulating inactive raloxifene glucuronide | bioavailability ([20]; human, in vivo, fast-dispersing 60 mg tablet (without alkylsaccharide), read-out: absolute bioavailability): ~2%

CCCCCCCCCCCCCCCC(=O)N[C@@H](CCC(=O)NCCCC[C@H](NC(=O)[C@H](C)NC(=O)[C@H](C)NC(=O)[C@H](CCC(N)=O)NC(=O)CNC(=O)[C@H](CCC(=O)O)NC(=O)[C@H](CC(C)C)NC(=O)[C@H](Cc1ccc(O)cc1)NC(=O)[C@H](CO)NC(=O)[C@H](CO)NC(=O)[C@@H](NC(=O)[C@H](CC(=O)O)NC(=O)[C@H](CO)NC(=O)[C@@H](NC(=O)[C@H](Cc1ccccc1)NC(=O)[C@@H](NC(=O)CNC(=O)[C@H](CCC(=O)O)NC(=O)[C@H](C)NC(=O)[C@@H](N)Cc1cnc[nH]1)[C@@H](C)O)[C@@H](C)O)C(C)C)C(=O)N[C@@H](CCC(=O)O)C(=O)N[C@@H](Cc1ccccc1)C(=O)N[C@H](C(=O)N[C@@H](C)C(=O)N[C@@H](Cc1c[nH]c2ccccc12)C(=O)N[C@@H](CC(C)C)C(=O)N[C@H](C(=O)N[C@@H](CCCNC(=N)N)C(=O)NCC(=O)N[C@@H](CCCNC(=N)N)C(=O)NCC(=O)O)C(C)C)[C@@H](C)CC)C(=O)O [Liraglutide]
dose response [21]: positive dose response

benzalkonium chloride
disruption of mucociliary surfaces [22]: significant disruption of the mucociliary surfaces
